# Results taken from ChEMBL document CHEMBL5537170, “Design, Synthesis, and Anti-Osteoporotic Characterization of Arginine N-Glycosylated Teriparatide Analogs via the Silver-catalyzed Solid-Phase Glycosylation Strategy” (J Med Chem, 2024).
# *1 amine or outer side, *2 acyl side, *3 side chain or, on linkers, in order; H or OH if unused. Where a SMILES comes first, the peptide text is derived from it. [ ]: non-standard residue; d: D form. X1 = N=C(NCCC[C@H](N[*:1])C(=O)[*:2])N[C@@H]1O[C@H](CO)[C@@H](O)[C@H](O)[C@H]1O
# Test: Cytotoxicity against C57BL/6 mouse Pre-Osteoblast cells assessed as cell death upto 5 uM incubated for 4 days by CCK-8 assay
# Format: toxicity, cell-based
# Details: 96 h, time 4 day
row,Compound,Activity
1,CC[C@H](C)[C@H](NC(=O)[C@H](CCC(=O)O)NC(=O)[C@H](CO)NC(=O)[C@@H](NC(=O)[C@H](CO)NC(C)=O)C(C)C)C(=O)N[C@@H](CCC(N)=O)C(=O)N[C@@H](CC(C)C)C(=O)N[C@@H](CCSC)C(=O)N[C@@H](Cc1cnc[nH]1)C(=O)N[C@@H](CC(N)=O)C(=O)N[C@@H](CC(C)C)C(=O)NCC(=O)N[C@@H](CCCCN)C(=O)N[C@@H](Cc1cnc[nH]1)C(=O)N[C@@H](CC(C)C)C(=O)N[C@@H](CC(N)=O)C(=O)N[C@@H](CO)C(=O)N[C@@H](CCSC)C(=O)N[C@@H](CCC(=O)O)C(=O)N[C@@H](CCCNC(=N)N[C@@H]1O[C@H](CO)[C@@H](O)[C@H](O)[C@H]1O)C(=O)N[C@H](C(=O)N[C@@H](CCC(=O)O)C(=O)N[C@@H](Cc1c[nH]c2ccccc12)C(=O)N[C@@H](CC(C)C)C(=O)N[C@@H](CCCNC(=N)N[C@@H]1O[C@H](CO)[C@@H](O)[C@H](O)[C@H]1O)C(=O)N[C@@H](CCCCN)C(=O)N[C@@H](CCCCN)C(=O)N[C@@H](CC(C)C)C(=O)N[C@@H](CCC(N)=O)C(=O)N[C@@H](CC(=O)O)C(=O)N[C@H](C(=O)N[C@@H](Cc1cnc[nH]1)C(=O)N[C@@H](CC(N)=O)C(=O)N[C@@H](Cc1ccccc1)C(N)=O)C(C)C)C(C)C (Ac-SVSEIQLMHNLGKHLNSME[X1]VEWL[X1]KKLQDVHNF-NH2),Non-Toxic
2,CC[C@H](C)[C@H](NC(=O)[C@H](CCC(=O)O)NC(=O)[C@H](CO)NC(=O)[C@@H](NC(=O)[C@H](CO)NC(C)=O)C(C)C)C(=O)N[C@@H](CCC(N)=O)C(=O)N[C@@H](CC(C)C)C(=O)N[C@@H](CCSC)C(=O)N[C@@H](Cc1cnc[nH]1)C(=O)N[C@@H](CC(N)=O)C(=O)N[C@@H](CC(C)C)C(=O)NCC(=O)N[C@@H](CCCCN)C(=O)N[C@@H](Cc1cnc[nH]1)C(=O)N[C@@H](CC(C)C)C(=O)N[C@@H](CC(N)=O)C(=O)N[C@@H](CO)C(=O)N[C@@H](CCSC)C(=O)N[C@@H](CCC(=O)O)C(=O)N[C@@H](CCCNC(=N)N)C(=O)N[C@H](C(=O)N[C@@H](CCC(=O)O)C(=O)N[C@@H](Cc1c[nH]c2ccccc12)C(=O)N[C@@H](CC(C)C)C(=O)N[C@@H](CCCNC(=N)N[C@@H]1O[C@H](CO)[C@@H](O)[C@H]1O)C(=O)N[C@@H](CCCCN)C(=O)N[C@@H](CCCCN)C(=O)N[C@@H](CC(C)C)C(=O)N[C@@H](CCC(N)=O)C(=O)N[C@@H](CC(=O)O)C(=O)N[C@H](C(=O)N[C@@H](Cc1cnc[nH]1)C(=O)N[C@@H](CC(N)=O)C(=O)N[C@@H](Cc1ccccc1)C(N)=O)C(C)C)C(C)C,Non-Toxic
3,CC[C@H](C)[C@H](NC(=O)[C@H](CCC(=O)O)NC(=O)[C@H](CO)NC(=O)[C@@H](NC(=O)[C@H](CO)NC(C)=O)C(C)C)C(=O)N[C@@H](CCC(N)=O)C(=O)N[C@@H](CC(C)C)C(=O)N[C@@H](CCSC)C(=O)N[C@@H](Cc1cnc[nH]1)C(=O)N[C@@H](CC(N)=O)C(=O)N[C@@H](CC(C)C)C(=O)NCC(=O)N[C@@H](CCCCN)C(=O)N[C@@H](Cc1cnc[nH]1)C(=O)N[C@@H](CC(C)C)C(=O)N[C@@H](CC(N)=O)C(=O)N[C@@H](CO)C(=O)N[C@@H](CCSC)C(=O)N[C@@H](CCC(=O)O)C(=O)N[C@@H](CCCNC(=N)N[C@H]1O[C@H](CO)[C@@H](O)[C@H](O)[C@@H]1O)C(=O)N[C@H](C(=O)N[C@@H](CCC(=O)O)C(=O)N[C@@H](Cc1c[nH]c2ccccc12)C(=O)N[C@@H](CC(C)C)C(=O)N[C@@H](CCCNC(=N)N)C(=O)N[C@@H](CCCCN)C(=O)N[C@@H](CCCCN)C(=O)N[C@@H](CC(C)C)C(=O)N[C@@H](CCC(N)=O)C(=O)N[C@@H](CC(=O)O)C(=O)N[C@H](C(=O)N[C@@H](Cc1cnc[nH]1)C(=O)N[C@@H](CC(N)=O)C(=O)N[C@@H](Cc1ccccc1)C(N)=O)C(C)C)C(C)C,Non-Toxic
